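These data come from cells grown in 96-well plates and exposed to compound for 48 hours at five concentrations. GI50 = concentration required for 50% inhibition of growth. TGI is the concentration that stops growth completely.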
Experiments:
Assay in all cases: NCI-60 cell line screen, 48 h
U251 CNS = test system: U251 CNS
NCI-H460 lung = test system: NCI-H460 lung
HOP-62 NSCLC = test system: HOP-62 NSCLC
SF-268 CNS = test system: SF-268 CNS
HCT-15 colon = test system: HCT-15 colon
MALME-3M melanoma = test system: MALME-3M melanoma
OVCAR-5 ovarian = test system: OVCAR-5 ovarian
SK-MEL-28 melanoma = test system: SK-MEL-28 melanoma
ACHN renal = test system: ACHN renal
OVCAR-8 ovarian = test system: OVCAR-8 ovarian
EKVX NSCLC = test system: EKVX NSCLC
NCI-H522 lung = test system: NCI-H522 lung
SF-539 CNS = test system: SF-539 CNS
SK-MEL-2 melanoma = test system: SK-MEL-2 melanoma
NCI-H23 lung = test system: NCI-H23 lung
PC-3 prostate = test system: PC-3 prostate
KM12 colon = test system: KM12 colon
HCC-2998 colon = test system: HCC-2998 colon
MOLT-4 leukemia = test system: MOLT-4 leukemia
K-562 leukemia = test system: K-562 leukemia
TK-10 renal = test system: TK-10 renal
MCF7 breast = test system: MCF7 breast
OVCAR-3 ovarian = test system: OVCAR-3 ovarian
UACC-257 melanoma = test system: UACC-257 melanoma
786-0 renal = test system: 786-0 renal
NCI-H226 lung = test system: NCI-H226 lung
SF-295 CNS = test system: SF-295 CNS
HS 578T breast = test system: HS 578T breast
RPMI-8226 leukemia = test system: RPMI-8226 leukemia
SNB-75 CNS = test system: SNB-75 CNS
HT29 colon = test system: HT29 colon
HCT-116 colon = test system: HCT-116 colon
SR leukemia = test system: SR leukemia
CCRF-CEM leukemia = test system: CCRF-CEM leukemia
SN12C renal = test system: SN12C renal
HL-60(TB) leukemia = test system: HL-60(TB) leukemia
RXF 393 renal = test system: RXF 393 renal
A498 renal = test system: A498 renal
A549 NSCLC = test system: A549 NSCLC
OVCAR-4 ovarian = test system: OVCAR-4 ovarian
CAKI-1 renal = test system: CAKI-1 renal
UACC-62 melanoma = test system: UACC-62 melanoma
HOP-92 NSCLC = test system: HOP-92 NSCLC
MDA-MB-231 breast = test system: MDA-MB-231 breast
NCI/ADR-RES ovarian = test system: NCI/ADR-RES ovarian
COLO 205 colon = test system: COLO 205 colon
UO-31 renal = test system: UO-31 renal
DU-145 prostate = test system: DU-145 prostate
BT-549 breast = test system: BT-549 breast
M14 melanoma = test system: M14 melanoma
T-47D breast = test system: T-47D breast
IGROV1 ovarian = test system: IGROV1 ovarian
SK-MEL-5 melanoma = test system: SK-MEL-5 melanoma
MDA-MB-435 = test system: MDA-MB-435
SW-620 colon = test system: SW-620 colon
LOX IMVI melanoma = test system: LOX IMVI melanoma

Molecule `O=C(NCCCn1ccnc1[N+](=O)[O-])C(=O)NCCCn1ccnc1[N+](=O)[O-]` has a TGI (U251 CNS) of over 100000 nM, a TGI (NCI-H460 lung) of over 100 µM and a TGI (HOP-62 NSCLC) of over 100 µM. It also gave a TGI (SF-268 CNS) of over 100 µM, a TGI (HCT-15 colon) of over 100000 nM and a TGI (MALME-3M melanoma) of over 100 µM. The TGI (OVCAR-5 ovarian) was over 100 µM, the TGI (SK-MEL-28 melanoma) was over 100 µM and the TGI (ACHN renal) was over 100000 nM. For the same molecule, the TGI (OVCAR-8 ovarian) was over 100 µM, the TGI (EKVX NSCLC) was over 100 µM and the TGI (NCI-H522 lung) was over 100 µM. It also gave a TGI (SF-539 CNS) of over 100 µM, a TGI (SK-MEL-2 melanoma) of over 100 µM and a TGI (NCI-H23 lung) of over 100 µM. The TGI (PC-3 prostate) was over 100000 nM, the TGI (KM12 colon) was over 100 µM and the TGI (HCC-2998 colon) was over 100 µM. It also gave a TGI (MOLT-4 leukemia) of over 100 µM, a TGI (K-562 leukemia) of over 100000 nM and a TGI (TK-10 renal) of over 100 µM. It also gave a TGI (MCF7 breast) of over 100 µM, a TGI (OVCAR-3 ovarian) of over 100 µM and a TGI (UACC-257 melanoma) of over 100 µM. The TGI (786-0 renal) was over 100 µM, the TGI (NCI-H226 lung) was over 100 µM and the TGI (SF-295 CNS) was over 100 µM. For the same molecule, the TGI (HS 578T breast) was over 100 µM, the TGI (RPMI-8226 leukemia) was over 100 µM and the TGI (SNB-75 CNS) was over 100000 nM. For the same molecule, the TGI (HT29 colon) was over 100 µM, the TGI (HCT-116 colon) was over 100000 nM and the TGI (SR leukemia) was over 100 µM. It also gave a TGI (CCRF-CEM leukemia) of over 100000 nM, a TGI (SN12C renal) of over 100 µM and a TGI (HL-60(TB) leukemia) of over 100 µM.
With `NCCNc1nc2ccccc2c2c(=O)c3cc(F)cc(Cl)c3sc12` the GI50 (U251 CNS) was 1220 nM, the TGI (U251 CNS) was 2660 nM and the GI50 (RXF 393 renal) was 1620 nM. It also gave a TGI (RXF 393 renal) of 3.16 µM, a GI50 (NCI-H460 lung) of 1700 nM and a TGI (NCI-H460 lung) of 3.25 µM. The GI50 (HOP-62 NSCLC) was 1350 nM, the TGI (HOP-62 NSCLC) was 3.04 µM and the GI50 (SF-268 CNS) was 1570 nM. It also gave a TGI (SF-268 CNS) of 3.29 µM, a GI50 (HCT-15 colon) of 1180 nM and a TGI (HCT-15 colon) of 2500 nM. For the same molecule, the GI50 (MALME-3M melanoma) was 1830 nM, the TGI (MALME-3M melanoma) was 3.35 µM and the GI50 (OVCAR-5 ovarian) was 1650 nM. The TGI (OVCAR-5 ovarian) was 3.1 µM, the GI50 (A498 renal) was 1560 nM and the TGI (A498 renal) was 3.31 µM. The GI50 (A549 NSCLC) was 1790 nM, the TGI (A549 NSCLC) was 3.72 µM and the GI50 (SK-MEL-28 melanoma) was 1870 nM. It also gave a TGI (SK-MEL-28 melanoma) of 3.4 µM, a GI50 (OVCAR-4 ovarian) of 1700 nM and a TGI (OVCAR-4 ovarian) of 3.41 µM. The GI50 (ACHN renal) was 1630 nM, the TGI (ACHN renal) was 2990 nM and the GI50 (OVCAR-8 ovarian) was 1610 nM. For the same molecule, the TGI (OVCAR-8 ovarian) was 3.57 µM, the GI50 (EKVX NSCLC) was 1600 nM and the TGI (EKVX NSCLC) was 3.13 µM. The GI50 (NCI-H522 lung) was 1640 nM, the TGI (NCI-H522 lung) was 3.43 µM and the GI50 (CAKI-1 renal) was 1410 nM. For the same molecule, the TGI (CAKI-1 renal) was 2800 nM, the GI50 (SF-539 CNS) was 1700 nM and the TGI (SF-539 CNS) was 3.08 µM. It also gave a GI50 (SK-MEL-2 melanoma) of 1820 nM, a TGI (SK-MEL-2 melanoma) of 3.6 µM and a GI50 (NCI-H23 lung) of 1750 nM. It also gave a TGI (NCI-H23 lung) of 3.42 µM, a GI50 (UACC-62 melanoma) of 1660 nM and a TGI (UACC-62 melanoma) of 3.06 µM. The GI50 (PC-3 prostate) was 1420 nM, the TGI (PC-3 prostate) was 2900 nM and the GI50 (KM12 colon) was 1730 nM. The TGI (KM12 colon) was 3.24 µM, the GI50 (HCC-2998 colon) was 1750 nM and the TGI (HCC-2998 colon) was 3.45 µM. It also gave a GI50 (MOLT-4 leukemia) of 1820 nM, a TGI (MOLT-4 leukemia) of 3.69 µM and a GI50 (K-562 leukemia) of 261 nM. For the same molecule, the TGI (K-562 leukemia) was 1030 nM, the GI50 (MCF7 breast) was 1520 nM and the TGI (MCF7 breast) was 3.13 µM. The GI50 (OVCAR-3 ovarian) was 1720 nM, the TGI (OVCAR-3 ovarian) was 3.18 µM and the GI50 (UACC-257 melanoma) was 1850 nM. The TGI (UACC-257 melanoma) was 3.72 µM, the GI50 (786-0 renal) was 1640 nM and the TGI (786-0 renal) was 3.14 µM. It also gave a GI50 (NCI-H226 lung) of 9.54 µM, a TGI (NCI-H226 lung) of 31.2 µM and a GI50 (SF-295 CNS) of 1730 nM. The TGI (SF-295 CNS) was 3.18 µM, the GI50 (HS 578T breast) was 1630 nM and the TGI (HS 578T breast) was 3.7 µM. It also gave a GI50 (HOP-92 NSCLC) of 1390 nM, a TGI (HOP-92 NSCLC) of 3.06 µM and a GI50 (MDA-MB-231 breast) of 1480 nM. The TGI (MDA-MB-231 breast) was 2930 nM, the GI50 (NCI/ADR-RES ovarian) was 1810 nM and the TGI (NCI/ADR-RES ovarian) was 3.65 µM. The GI50 (RPMI-8226 leukemia) was 1800 nM, the TGI (RPMI-8226 leukemia) was 3.82 µM and the GI50 (COLO 205 colon) was 1690 nM. The TGI (COLO 205 colon) was 3.31 µM, the GI50 (UO-31 renal) was 1220 nM and the TGI (UO-31 renal) was 2490 nM. It also gave a GI50 (DU-145 prostate) of 1730 nM, a TGI (DU-145 prostate) of 3.22 µM and a GI50 (BT-549 breast) of 1550 nM. It also gave a TGI (BT-549 breast) of 2930 nM, a GI50 (M14 melanoma) of 1650 nM and a TGI (M14 melanoma) of 3.03 µM. It also gave a GI50 (SNB-75 CNS) of 1270 nM, a TGI (SNB-75 CNS) of 2560 nM and a GI50 (T-47D breast) of 1550 nM. For the same molecule, the TGI (T-47D breast) was 3.48 µM, the GI50 (IGROV1 ovarian) was 1510 nM and the TGI (IGROV1 ovarian) was 3.01 µM. For the same molecule, the GI50 (HT29 colon) was 1560 nM, the TGI (HT29 colon) was 3.3 µM and the GI50 (HCT-116 colon) was 694 nM. It also gave a TGI (HCT-116 colon) of 1990 nM, a GI50 (SK-MEL-5 melanoma) of 2520 nM and a TGI (SK-MEL-5 melanoma) of 6.66 µM. The GI50 (CCRF-CEM leukemia) was 1310 nM, the TGI (CCRF-CEM leukemia) was 2820 nM and the GI50 (SN12C renal) was 1650 nM. It also gave a TGI (SN12C renal) of 3.17 µM, a GI50 (MDA-MB-435) of 1730 nM and a TGI (MDA-MB-435) of 3.22 µM. The GI50 (HL-60(TB) leukemia) was 1880 nM, the TGI (HL-60(TB) leukemia) was 3.76 µM and the GI50 (SW-620 colon) was 1540 nM. For the same molecule, the TGI (SW-620 colon) was 3.08 µM, the GI50 (LOX IMVI melanoma) was 1660 nM and the TGI (LOX IMVI melanoma) was 3.17 µM.
